# Measurements published in ChEMBL document CHEMBL1201862, “PubChem BioAssay data set” (2004).
#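 Briefly, cells in 96-well plates were exposed to five compound concentrations for 48 h, and endpoints were estimated by linear interpolation. At the GI50, growth is halved.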 Activity calls are given as the source filed them. Rule as the data show it: active = GI50 up to about 1.1 µM and inactive = higher.
# What was measured:
# Experiment in all cases: inhibition of tumour cell growth, NCI panel, 48 h
# UACC-257 = test system: UACC-257
# OVCAR-5 = test system: OVCAR-5
# SF-295 = test system: SF-295
# CCRF-CEM = test system: CCRF-CEM
# ACHN = test system: ACHN
# HCC 2998 = test system: HCC 2998
# A549 = test system: A549
# PC-3 = test system: PC-3
# KM12 = test system: KM12
# COLO 205 = test system: COLO 205
# SK-MEL-5 = test system: SK-MEL-5
# LXFL 529 = test system: LXFL 529
# UACC-62 = test system: UACC-62
# HT-29 = test system: HT-29
# HL-60 = test system: HL-60
# OVCAR-3 = test system: OVCAR-3
# SR = test system: SR
# M14 = test system: M14
# EKVX = test system: EKVX
# 786-0 = test system: 786-0
Compound,GI50 (UACC-257),GI50 (OVCAR-5),GI50 (SF-295),GI50 (CCRF-CEM),GI50 (ACHN),GI50 (HCC 2998),GI50 (A549),GI50 (PC-3),GI50 (KM12),GI50 (COLO 205),GI50 (SK-MEL-5),GI50 (LXFL 529),GI50 (UACC-62),GI50 (HT-29),GI50 (HL-60),GI50 (OVCAR-3),GI50 (SR),GI50 (M14),GI50 (EKVX),GI50 (786-0)
O=C1/C(=C/c2ccccc2)CN(C(=O)/C=C/c2ccccc2)C/C1=C\c1ccccc1,12.7 µM (inactive),17.6 µM (inactive),4.79 µM (inactive),2.85 µM (inactive),14.2 µM (inactive),3.55 µM (inactive),11.1 µM (inactive),2.03 µM (inactive),4.17 µM (inactive),4.92 µM (inactive),8.38 µM (inactive),8.05 µM (inactive),5.69 µM (inactive),3.07 µM (inactive),4.44 µM (inactive),7.13 µM (inactive),1.3 µM (inactive),3.63 µM (inactive),24.5 µM (inactive),4.09 µM (inactive)
N/C(=C\c1ccc(OCc2ccccc2)c(OCc2ccccc2)c1[N+](=O)[O-])C(=O)O,> 100 µM (inactive),> 100 µM (inactive),> 100 µM (inactive),> 100 µM (inactive),> 100 µM (inactive),> 100 µM (inactive),> 100 µM (inactive),,> 100 µM (inactive),> 100 µM (inactive),> 100 µM (inactive),> 100 µM (inactive),> 100 µM (inactive),> 100 µM (inactive),> 100 µM (inactive),> 100 µM (inactive),> 100 µM (inactive),> 100 µM (inactive),> 100 µM (inactive),> 100 µM (inactive)
C[N+](C)(C)CC(=O)N/N=C(\C(=O)NC1=C(Cl)C(=O)c2ccccc2C1=O)C(C#N)c1nc(-c2ccc([N+](=O)[O-])cc2)cs1 (stereo not drawn),3.18 µM (inactive),13.1 µM (inactive),6.37 µM (inactive),8.28 µM (inactive),10.6 µM (inactive),14.1 µM (inactive),4.54 µM (inactive),6.89 µM (inactive),14.6 µM (inactive),17.2 µM (inactive),1.13 µM (inactive),7.91 µM (inactive),3.83 µM (inactive),8.38 µM (inactive),5.73 µM (inactive),1.02 µM (active),5.62 µM (inactive),3.15 µM (inactive),14.1 µM (inactive),8.63 µM (inactive)
O=C1/C(=C/c2ccc3c(c2)OCO3)CCC1CN1CCOCC1 (stereo not drawn),9.68 µM (inactive),14 µM (inactive),18.2 µM (inactive),1.54 µM (inactive),10.7 µM (inactive),8.75 µM (inactive),20.9 µM (inactive),2.17 µM (inactive),4.65 µM (inactive),9.73 µM (inactive),9.16 µM (inactive),2.65 µM (inactive),9.16 µM (inactive),5.77 µM (inactive),1.44 µM (inactive),7.93 µM (inactive),1.65 µM (inactive),4.22 µM (inactive),16.6 µM (inactive),5.42 µM (inactive)
Cc1c2ccncc2c(C)c2c1[nH]c1ccc(Oc3ccccc3)cc12,2.45 µM (inactive),1.86 µM (inactive),4.63 µM (inactive),2.17 µM (inactive),3.11 µM (inactive),1.94 µM (inactive),2.25 µM (inactive),,2.6 µM (inactive),2.52 µM (inactive),2.97 µM (inactive),2.04 µM (inactive),1.74 µM (inactive),1.79 µM (inactive),1.85 µM (inactive),2.46 µM (inactive),2.85 µM (inactive),1.82 µM (inactive),5.82 µM (inactive),1.78 µM (inactive)
